This note sets out measurements from patent US11691960B2, “2-[thiophen-2-yl)formamido]-N-(phenyl)-2-methylpropanamide derivatives and the use thereof as medicament” (Boehringer Ingelheim International GmbH, priority 2020, dated 2023).

Where two headings read alike, the source gives them in different places.

Series [1] in a line: Assay F: tissue distribution in rat after oral application. It counts as in vivo. Particulars: for in vivo efflux (in words): after oral application; for in vivo efflux (Assay F): oral 10 μmol/kg, muscle/brain tissue distribution. The text has this: In order to estimate the amount of administered drug to enter the brain, the brain to plasma ratio is used as surrogate parameter. As efflux transporters (e.g. P-gp) are located at the blood-brain barrier, compounds acting as substrates will be actively transported out of the brain. As these efflux transporters are not expressed in muscle tissue, the relative distribution ratio of compound between muscle and brain tissue can be used as indication for an efflux in vivo in rats or mice. In case there is no in vivo efflux detectable (in rats/mice) and in case there is no efflux in vitro (MDCK-MDR1 (P-gp)), a brain exposure in patients can be expected [see Table 7 for comparison of in vitro efflux data (MDCK-MDR1 assay) and in vivo efflux data (tissue distribution in rat/mouse after oral application)].
Assay F. Determination of Tissue Distribution in Rat/Mouse After Oral Application of Compounds
Male Han Wistar rats or C57BL/6NRj mice were orally dosed with 10 μmol/kg of compound to be investigated, suspended in 0.5% Natrosol/0.015% Tween80. Blood was collected in K3EDTA containing vials from the sublingual vein in short time Isoflurane anesthesia in rat or from the saphenous vein in conscious mice at […], 0.25, 0.5, 1, 2, 3, 4, 8 and 24 hours post administration. Subsequently, plasma was prepared by centrifugation for 5 min at 5000 rpm and stored at −20° C.
Tissues and CSF were sampled in anaesthetized animals. CSF was collected from the cisterna magna. Following exsanguination a femoral muscle sample was collected. Cranium and the dura matter were removed and the complete brain was collected. Before transfer of the muscle and brain sample to pre-weight homogenization devices (Precellys®) the tissues were rinsed with saline and blotted dry.
For homogenization, four parts (v/w) homogenization buffer (37.5% acetonitrile, 37.5% methanol, 25% water) were added. Tissues were homogenized with a Precellys® Evolution homogenizer. Five μL of the homogenate were added to 70 μL of a 1 to 1 (v/v) mixture of acetonitrile and methanol and frozen for at least 10 min at −18° C.
For final sample preparation, the sample was centrifuged at 4000 rpm for 1 min, and an aliquot of the resulting supernatant (30 μL) was mixed with 170 μL formic acid prior to injection to LC-MS. Calibration curves were prepared accordingly in rat and mouse plasma, respectively. All animal care and experimental procedures at Boehringer Ingelheim were conducted in compliance with the German and European Animal Welfare Act (EU Directive 2010/63/EU) and were approved by the Regierungspräsidium Tübingen as the responsible local German authority (reference number 35/9185.81-8/14-009-G).

Series [2] deals with human Factor Xa (Homo sapiens (Human), UniProt P00742). Description: Assay C: human Factor Xa chromogenic substrate assay. Particulars: for IC50: human Factor Xa 0.86 nM, chromogenic substrate S2765; for Selectivity Assay C/Assay A: ratio IC50 Factor Xa / IC50 IDO1. It counts as biochemical. As to the method: Assay C. In Vitro Testing of Human Factor Xa Potency:
Measurement of active human Factor Xa using a specific chromogenic substrate which is labeled with a p-nitro-anilino group (pNA). The cleavage in between the binding of the peptide substrate and the pNA-group is followed by a color change, which can be detected at 405 nm. The amount of cleaved substrate is directly proportional to the amount of active Xa.
[…] (100 U) human Factor Xa (Enzyme Research Laboratories; HFXa1011) were solved in 0.444 ml H2O (Millipore), which accords to a stock solution of 19.28 μM or 225 U/ml. Further dilutions were made in the assay buffer (Tris 100 mM, NaCL 150 mM, adjusted to a pH of 7.8 with HCL, containing 0.1% BSA and 0.05% Tween20). 25 mg (1 vial) of the chromogenic substrate S2765 (Chromogenix; S2765) was solved in 3.5 ml H2O (Millipore) to achieve a stock solution of 10 mM.
Compounds were solved and diluted in DMSO where the final dilution in the assay is 1:10 resulting in a final concentration of 1% DMSO.
• the prefinal dilution step was 1:10 in the assay buffer containing 11% DMSO resulting in 10% DMSO • final dilution in the assay is 1:10 resulting in a final concentration of 1% DMSO
Compounds were tested at final concentrations of 10 μM to 0.003 nM or lower. 5 μl human factor Xa (final concentration 0.86 nM), 2 μl compound dilution or assay buffer (containing 10% DMSO) and 8 μl assay buffer were pipetted in triplicates into a 384-well plate and incubated in the Thermomix at 24° C. for 10 minutes.
After addition of 5 μl chromogenic substrate (final concentration 0.5 mM) the enzyme-substrate reaction started and the kinetic measurement with the SpectraMax Monochromator was started within 1-2 minutes. • Parameter of measurement: (Spectra ax, Monochromator) • Absorbance; 1.LM 405 nM • Kinetic: 16 min each 2nd minute (9 times) • Negative Control (NC) 5 μl human factor Xa+10 μl assay buffer+5 μl Substrate • Positive Control (PC): 5 μl human factor Xa+2 μl Nafamostat (commercially available, final concentration: 1 μM)+8 μl assay buffer+5 μl Substrate • Blank (optional): 15 μl assay buffer+5 μl Substrate
Calculation of IC50, KI and the % effect at the highest concentration (Ratio)
For the calculation the average of the Vmax-values in between 120 sec to 720 sec were taken.
A x/y-Plot was created: x=log (M, Compound); y=vmax (drfu/min)
The data were analyzed with the curve fitting model: log (inhibitor) vs. response—Variable slope (four parameters)
The results of this fit were Top, Bottom, Log (IC50, M), Hillslope and IC50 (M)

The target of series [3] is MDR1 (P-gp) (Homo sapiens (Human), UniProt P08183). Description: Assay E: MDCK assay MDR-1 (P-gp). It counts as in vitro ADME. Particulars: for efflux ratio at 2 h, 10 μM: human, final test concentration 10 μM. The protocol:
The MDCK assays provide information on the potential of a compound to pass the blood brain barrier. Permeability measurements across polarized, confluent MDCK-MDR1 cell monolayers grown on permeable filter supports are used as an in vitro absorption model: apparent permeability coefficients (PE) of the compounds across the MDCK-MDR1 cell monolayers are measured (pH 7.4, 37° C.) in apical-to-basal (AB) and basal-to-apical (BA) transport direction. The AB permeability (PEAB) represents drug absorption from the blood into the brain and the BA permeability (PEBA) drug efflux from the brain back into the blood via both, passive permeability as well as active transport mechanisms mediated by efflux and uptake transporters that are expressed on the MDCK-MDR1 cells, predominantly by the overexpressed human MDR1. Identical or similar permeabilities in both transport directions indicate passive permeation, vectorial permeability points to additional active transport mechanisms. Higher PEBA than PEAB (PEBA/PEAB >3) indicates the involvement of active efflux mediated by MDR1, which might compromise the goal to achieve sufficient brain exposure.
Assay E. MDCK assay MDR-1 (P-gp)
Apparent permeability coefficients (Papp) of the compounds across MDCK-MDR1 monolayers (MDCKII cells transfected with human MDR1 gene) are measured in apical-to-basal (AB) and basal-to-apical (BA) direction.
MDCK-MDR1 cells (6×10^5 cells/cm^2) are seeded onto filter inserts (Corning, Transwell, polycarbonate, 0.4 μm pore size) and cultured for 9 to 10 days. Compounds dissolved in DMSO stock solution (1-20 mM) are diluted with HTP-4 buffer (128.13 mM NaCl, 5.36 mM KCl, 1 mM MgSO4, 1.8 mM CaCl2, 4.17 mM NaHCO3, 1.19 mM Na2HPO4, 0.41 mM NaH2PO4, 15 mM HEPES, 20 mM glucose, pH 7.4) supplemented with 0.25% BSA to prepare the transport solutions, resulting in a final test concentration of 1 μM or 10 μM and a final DMSO content of 0.5%. The transport solution is applied to the apical or basolateral donor side for measuring A-B or B-A permeability, respectively. The receiver side contains HTP-4 buffer supplemented with 0.25% BSA. Samples are collected at the start and end of experiment from the donor and at various time intervals for up to 2 hours from the receiver side for concentration measurement by HPLC-MS/MS. Sampled receiver volumes are replaced with fresh receiver solution.
All data reported for Assay E were measured with a final test concentration of 10 μM.

In series [4] the target is human androgen receptor (Homo sapiens (Human), UniProt P10275). The series can be described thus: Assay B: human androgen receptor luciferase reporter assay (Indigo Biosciences). It counts as cell-based. From the text: Assay B. In Vitro Testing of Androgen Receptor Potency:
The human androgen receptor (AR) assay was run using Product #IB03001 from Indigo Biosciences. The cell line provided in this kit carries a reporter gene, induced upon AR stimulation. This reporter gene is cDNA encoding for beetle luciferase, a 62 kD protein originating from the North American firefly (Photinus pyralis). This luciferase catalyzes the mono-oxidation of D-luciferin yielding oxyluciferin, adenosine monophosphate, pyrophosphate, CO2, and photon emission. The luminescence intensity of the reaction is quantified using a luminometer.
To run the assay, the cells are thawed by adding pre-warmed cell recovery medium to each tube, then placed in a 37° C. water bath. 30000 viable cells in 200 μl are plated (collagen coated plates) and incubated at 37° C., ≥85% humidity, 5% CO2 for 24 hours. Media is replaced with compound screening medium. Cells are then challenged with 125 pM (EC80) 6a-Fl Testosterone and compounds are applied in half logarithmic dilutions from 10 μM to 10 nM. Assay plates are then incubated at 37° C., ≥85% humidity, 5% CO2 for 22-24 hours. Media is replaced with luciferase detection reagent and allowed 5 minutes to equilibrate prior to luminescence quantification.
Data Analysis consisted of calculating percentage of control between 100% (Negative control:6a-Fl Testosterone) and 0 (positive control: no 6a-FL Testosterone). Fitting of normalized values was made 4-Parameter sigmoidal binding curve (Log[conc]) vs. signal.
On the technique in general: In a reporter assay the amount or activity of a reporter protein is the signal.

Where [5] appears, read: MDCK-MDR1, pH 7.4, Table 7, read-out: MDCK-MDR1 efflux ratio (Assay E).
[6] abbreviates: pH 7.4, MDCK-MDR1 monolayers, mean +− standard deviation, read-out: Efflux ratio Assay E.

Sequence of human Factor Xa (P00742 235-488): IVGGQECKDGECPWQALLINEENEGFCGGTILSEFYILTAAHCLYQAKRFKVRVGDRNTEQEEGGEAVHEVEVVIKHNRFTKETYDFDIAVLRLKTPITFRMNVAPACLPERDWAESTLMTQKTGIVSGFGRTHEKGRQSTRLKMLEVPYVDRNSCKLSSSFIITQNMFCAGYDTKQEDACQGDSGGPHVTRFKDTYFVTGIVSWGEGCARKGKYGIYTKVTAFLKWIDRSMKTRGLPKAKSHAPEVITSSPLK
Sequence of human Factor Xa (P00742 41-179 partner): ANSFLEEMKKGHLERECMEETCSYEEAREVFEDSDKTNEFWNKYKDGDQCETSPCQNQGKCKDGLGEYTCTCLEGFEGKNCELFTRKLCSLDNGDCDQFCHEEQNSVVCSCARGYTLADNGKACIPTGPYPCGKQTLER
Sequence of MDR1 (P-gp) (P08183 whole entry): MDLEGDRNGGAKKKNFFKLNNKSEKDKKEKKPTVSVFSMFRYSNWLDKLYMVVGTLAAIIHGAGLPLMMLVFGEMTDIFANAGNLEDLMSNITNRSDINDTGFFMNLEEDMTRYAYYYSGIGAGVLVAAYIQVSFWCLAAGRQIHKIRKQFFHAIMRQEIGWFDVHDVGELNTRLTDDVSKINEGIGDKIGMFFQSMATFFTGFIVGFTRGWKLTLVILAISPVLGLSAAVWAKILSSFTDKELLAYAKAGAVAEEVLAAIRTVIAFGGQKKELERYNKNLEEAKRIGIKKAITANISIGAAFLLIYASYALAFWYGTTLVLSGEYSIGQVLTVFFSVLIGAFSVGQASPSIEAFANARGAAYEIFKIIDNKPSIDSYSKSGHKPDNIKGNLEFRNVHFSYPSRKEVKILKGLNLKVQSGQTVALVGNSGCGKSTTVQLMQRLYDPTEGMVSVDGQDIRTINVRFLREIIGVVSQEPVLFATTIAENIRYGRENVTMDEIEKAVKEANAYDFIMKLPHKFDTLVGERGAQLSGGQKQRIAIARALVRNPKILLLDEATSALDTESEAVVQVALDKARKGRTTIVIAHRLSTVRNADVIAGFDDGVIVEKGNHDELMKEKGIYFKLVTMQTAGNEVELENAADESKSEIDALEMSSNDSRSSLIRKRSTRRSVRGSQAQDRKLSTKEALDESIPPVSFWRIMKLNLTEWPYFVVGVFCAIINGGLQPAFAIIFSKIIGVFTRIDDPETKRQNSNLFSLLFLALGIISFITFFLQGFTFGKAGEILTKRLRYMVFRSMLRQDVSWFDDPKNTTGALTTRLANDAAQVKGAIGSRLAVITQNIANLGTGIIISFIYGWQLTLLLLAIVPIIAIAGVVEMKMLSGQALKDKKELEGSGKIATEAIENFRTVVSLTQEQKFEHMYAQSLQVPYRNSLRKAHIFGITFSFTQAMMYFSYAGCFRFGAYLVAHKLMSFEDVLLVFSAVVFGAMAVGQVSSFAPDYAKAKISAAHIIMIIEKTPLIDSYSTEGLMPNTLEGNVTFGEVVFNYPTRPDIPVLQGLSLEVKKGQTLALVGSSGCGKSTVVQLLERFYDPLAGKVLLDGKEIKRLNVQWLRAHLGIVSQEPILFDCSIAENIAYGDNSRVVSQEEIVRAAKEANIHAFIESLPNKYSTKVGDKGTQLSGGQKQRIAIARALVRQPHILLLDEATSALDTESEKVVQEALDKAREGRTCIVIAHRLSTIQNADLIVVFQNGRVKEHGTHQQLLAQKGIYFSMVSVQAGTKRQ
Sequence of human androgen receptor (P10275 whole entry): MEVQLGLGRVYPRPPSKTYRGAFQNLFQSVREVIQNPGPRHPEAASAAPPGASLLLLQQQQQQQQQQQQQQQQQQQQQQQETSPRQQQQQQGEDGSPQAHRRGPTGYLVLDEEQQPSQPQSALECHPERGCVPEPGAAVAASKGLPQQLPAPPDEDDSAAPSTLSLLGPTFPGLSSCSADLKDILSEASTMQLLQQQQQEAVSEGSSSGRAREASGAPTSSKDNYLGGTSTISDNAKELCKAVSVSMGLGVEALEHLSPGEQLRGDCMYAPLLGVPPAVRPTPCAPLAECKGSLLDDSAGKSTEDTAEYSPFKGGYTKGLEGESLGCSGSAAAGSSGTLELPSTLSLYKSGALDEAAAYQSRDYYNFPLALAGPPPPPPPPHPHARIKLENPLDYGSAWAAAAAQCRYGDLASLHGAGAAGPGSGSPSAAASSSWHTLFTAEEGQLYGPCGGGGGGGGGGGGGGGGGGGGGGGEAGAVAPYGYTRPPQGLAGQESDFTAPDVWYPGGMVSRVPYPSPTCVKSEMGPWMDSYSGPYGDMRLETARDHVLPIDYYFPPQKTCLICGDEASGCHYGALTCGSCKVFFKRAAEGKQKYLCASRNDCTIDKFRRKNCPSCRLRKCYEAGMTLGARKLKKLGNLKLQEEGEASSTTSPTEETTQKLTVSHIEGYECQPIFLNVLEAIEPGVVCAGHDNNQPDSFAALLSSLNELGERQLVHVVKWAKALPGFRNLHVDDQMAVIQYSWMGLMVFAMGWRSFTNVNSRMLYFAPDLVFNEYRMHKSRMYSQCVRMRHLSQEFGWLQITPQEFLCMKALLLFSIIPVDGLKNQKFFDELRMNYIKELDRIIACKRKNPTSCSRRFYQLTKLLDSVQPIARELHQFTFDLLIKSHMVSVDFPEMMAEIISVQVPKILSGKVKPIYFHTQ

Broadly, the IC50 is the concentration at which inhibition is half-maximal. A lower IC50 goes with greater potency. With `CC(C)(NC(=O)c1ccc(Cl)s1)C(=O)Nc1ncc2c(n1)CCN(Cc1ccccc1)CC2` [WO2007/003536 Ex. 159], in series [1], the “in vivo efflux (in words)” value was “substantial in vivo efflux” and the “in vivo efflux (Assay F)” value is recorded as 6.2 (rat). In addition, in series [2], the IC50 is over 10000 nM and the “Selectivity Assay C/Assay A” value is given as over 13. Moreover, the efflux ratio at 2 h, 10 μM in series [3] (setting [5]) came out at 1.8.

As to `Cc1cc(NC(=O)C(C)(C)NC(=O)c2ccc(Cl)s2)ccc1C(=O)N1CCCC1` [WO2005/111014 Ex. 4], in series [2], the “inhibition of the human Factor Xa enzyme (in words)” value (shortened to “inhibition”) is reported as “inhibits the human Factor Xa enzyme”, half-maximal inhibition (IC50) required 8 nM and the “Selectivity Assay C/Assay A” value turned out to be 0.03. In addition, the “in vitro efflux, MDCK-MDR1 (in words)” value in series [3] is “high efflux”. For the same molecule, in series [3] (setting [6]), the efflux ratio at 2 h, 10 μM turned out to be 5.7.

On to `CC(=O)N1CCc2ccc(NC(=O)C(C)(C)NC(=O)c3ccc(Cl)s3)cc2CC1` [WO2007/003536 Ex. 6], for which, in series [1], the “in vivo efflux (in words)” value was “substantial in vivo efflux” and the “in vivo efflux (Assay F)” value is recorded as 12.6 (rat). In series [2], the IC50 was over 10000 nM and the “Selectivity Assay C/Assay A” value is over 164. In series [3] (setting [5]), the efflux ratio at 2 h, 10 μM is 7.6.

In the case of `CC(C)(NC(=O)c1ccc(Cl)s1)C(=O)Nc1ccc2c(c1)CCN(C(=O)C(F)(F)F)CC2` [WO2007/003536 Ex. 4], in series [1], the “in vivo efflux (in words)” value is on record as “substantial in vivo efflux” and the “in vivo efflux (Assay F)” value is given as 3.3 (rat). Besides, in series [2], the IC50 was over 10000 nM and the “Selectivity Assay C/Assay A” value is reported as over 175. In series [3] (setting [5]), the efflux ratio at 2 h, 10 μM worked out at 1.

As for `C#Cc1ccc(C(=O)NC(C)(C(=O)Nc2ccc(N3CCOCC3=O)c(C)c2)C(F)(F)F)s1` (stereo not shown) [5-ethynyl-N-{1-trifluoromethyl-1-[3-methyl-4-(3-oxomorpholin-4-yl)phenylcarbamoyl]ethyl}thiophene-2-carboxamide], in series [2], the “inhibition” value is listed as “inhibits the human Factor Xa enzyme”, the IC50 is 48 nM and the “Selectivity Assay C/Assay A” value amounted to 0.08. Besides, the “in vitro efflux, MDCK-MDR1 (in words)” value in series [3] is on record as “high efflux ratio”. For the same molecule, in series [3] (setting [6]), the efflux ratio at 2 h, 10 μM is 32.

As to `CC(C)(NC(=O)c1ccc(Br)s1)C(=O)Nc1ccc(N2CCOCC2=O)c(Cl)c1` [WO2005/111029 Ex. 28], in series [2], the “inhibition” value is “inhibit the human Factor Xa enzyme”, the IC50 was found to be 26 nM and the “Selectivity Assay C/Assay A” value was 0.11. For the same molecule, in series [3], the “in vitro efflux, MDCK-MDR1 (in words)” value was “high efflux”.

`Cc1cc(NC(=O)C(C)(C)NC(=O)c2ccc(Cl)s2)ccc1N1CCOCC1=O` [WO2005/111029 Ex. 8]: in series [2], the “inhibition” value is “inhibit the human Factor Xa enzyme”, the IC50 stood at 40 nM and the “Selectivity Assay C/Assay A” value stood at 0.01. Besides, the “in vitro efflux, MDCK-MDR1 (in words)” value in series [3] is recorded as “high efflux”.

In the case of `CC(C)(NC(=O)c1ccc(Cl)s1)C(=O)Nc1ccc(Cl)cc1` [Example 5, 2-[(5-chlorothiophen-2-yl)formamido]-N-(4-chlorophenyl)-2-methylpropanamide], in series [2], the IC50 was over 10000 nM and the “Selectivity Assay C/Assay A” value is recorded as over 57. Further, in series [4] (challenge with 125 pM (EC80) 6a-Fl Testosterone, mean +− standard deviation), the IC50 is over 10000 nM. In series [4] (ratio IC50 androgen receptor / IC50 IDO1), the “Selectivity Assay B/Assay A” value was over 58.
